# Experimental data as given in patent US20100080852A1, “PHAMACEUTICAL COMPOSITION COMPRISING NANOPARTICLES AND CASEIN” (priority 2007, published 2010).
# Read-outs that look alike come from different tables or passages of the source.
# Columns and labels:
# [1] = Solubility of the drugs in MFD solution, PBS or water; type: physicochemical
# Log P value of the drugs = type: physicochemical; conditions: octanol/water
# Source text: The first property of hydrophobic drugs is that they are extremely hydrophobic. Log P, defined as the base 10 logarithm of the ratio of the drug solubility in octanol to the drug solubility in water, is a widely accepted measure of hydrophobicity. By “extremely hydrophobic” is meant that the Log P value of the drug is at least 4.0, preferably at least 4.5, and most preferably at least 5.0. Log P may be measured experimentally or calculated using methods known in the art. When using a calculated value for Log P, the highest value calculated using any generally accepted method for calculating Log P is used. Calculated Log P values are often referred to by the calculation method, such as Clog P, Alog P, and Mlog P. The Log P may also be estimated using fragmentation methods, such as Crippen's fragmentation method (27 J. Chem. Inf. Comput. Sci. 21 (1987)); Viswanadhan's fragmentation method (29 J. Chem. Inf. Comput. Sci. 163 (1989)); or Broto's fragmentation method (19 Eur. J. Med. Chem.-Chim. Theor. 71 (1984). Preferably the Log P value is calculated by using the average value estimated using Crippen's, Viswanadhan's, and Broto's fragmentation methods.
# [2] = MFD solution, fassgf or other biorelevant, read-out: solubility in MFD solution
compound,measurement,setting,value
"CCc1cc(Oc2cccc(N(Cc3cccc(OC(F)(F)C(F)F)c3)C[C@@H](O)C(F)(F)F)c2)ccc1Cl [Drug 2, (2R)-3-[[3-(4-chloro-3-ethylphenoxy)phenyl][[3-(1,1,2,2-tetrafluoroethoxy)phenyl]methyl]amino]-1,1,1-trifluoro-2-propanol]",solubility,"[1]; PBS, aqueous buffer, read-out: solubility in PBS",< 0.1 µg/mL
same,logP,Log P value of the drugs; read-out: Log P value,10
"c1cc[c]([Bi]([c]2ccccc2)[c]2ccccc2)cc1 [Drug 5, triphenyl bismuth]",logP,Log P value of the drugs,6
"Cc1ccc(-c2cc(C(F)(F)F)nn2-c2ccc(S(N)(=O)=O)cc2)cc1 [Drug 1, 4-[5-(4-methylphenyl)-3-(trifluoromethyl)-1H-pyrazol-1-yl]benzenesulfonamide]",solubility,[1]; [2],~40 µg/mL
same,logP,Log P value of the drugs; read-out: Log P value,3.75
"CC[C@@H]1C[C@H](N(Cc2cc(C(F)(F)F)cc(C(F)(F)F)c2)C(C)=O)c2cc(C(F)(F)F)ccc2N1C(=O)OC(C)C [Drug 3, [2R,4S] 4-[acetyl-(3,5-bis-trifluoromethyl-benzyl)-amino]-2-ethyl-6-trifluoromethyl-3,4-dihydro-2H-quinoline-1-carboxylic acid isopropyl ester]",solubility,[1]; [2],~11 µg/mL
